From US20260092071A1, “COMPOUNDS AND COMPOSITIONS AS SMARCA2/4 DEGRADERS AND USES THEREOF” (REGENTS OF THE UNIVERSITY OF MICHIGAN, priority 2022, published 2026) come the findings set out here.

For experiment [1], the target named is SMARCA2 (Homo sapiens, UniProt P51531). The experiment is described as follows: HiBit assay in engineered HT1080 CRISPR knock-in cell, 6 hrs (B series), SMARCA2. Conditions: 6 hrs incubation; for DC50: HT1080 CRISPR knock-in cells, read-out: SMARC A2 HT1080 HiBit DC50; for Dmax: HT-1080, HT1080 CRISPR knock-in cells, read-out: SMARC A2 HT1080 HiBit Dmax (%). The experiment is classed as cell-based. The method, boiled down: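 Using a 6 hr treatment window at 37° C and 5% CO2, tagged HT1080 knock-in cells were exposed to test compounds with DMSO vehicle held at 0.1%. Signal came from lytic LgBiT/substrate reagent added after incubation, with control wells lacking LgBiT, and was read as luminescence.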
SMARCA2, sequence (P51531 whole entry): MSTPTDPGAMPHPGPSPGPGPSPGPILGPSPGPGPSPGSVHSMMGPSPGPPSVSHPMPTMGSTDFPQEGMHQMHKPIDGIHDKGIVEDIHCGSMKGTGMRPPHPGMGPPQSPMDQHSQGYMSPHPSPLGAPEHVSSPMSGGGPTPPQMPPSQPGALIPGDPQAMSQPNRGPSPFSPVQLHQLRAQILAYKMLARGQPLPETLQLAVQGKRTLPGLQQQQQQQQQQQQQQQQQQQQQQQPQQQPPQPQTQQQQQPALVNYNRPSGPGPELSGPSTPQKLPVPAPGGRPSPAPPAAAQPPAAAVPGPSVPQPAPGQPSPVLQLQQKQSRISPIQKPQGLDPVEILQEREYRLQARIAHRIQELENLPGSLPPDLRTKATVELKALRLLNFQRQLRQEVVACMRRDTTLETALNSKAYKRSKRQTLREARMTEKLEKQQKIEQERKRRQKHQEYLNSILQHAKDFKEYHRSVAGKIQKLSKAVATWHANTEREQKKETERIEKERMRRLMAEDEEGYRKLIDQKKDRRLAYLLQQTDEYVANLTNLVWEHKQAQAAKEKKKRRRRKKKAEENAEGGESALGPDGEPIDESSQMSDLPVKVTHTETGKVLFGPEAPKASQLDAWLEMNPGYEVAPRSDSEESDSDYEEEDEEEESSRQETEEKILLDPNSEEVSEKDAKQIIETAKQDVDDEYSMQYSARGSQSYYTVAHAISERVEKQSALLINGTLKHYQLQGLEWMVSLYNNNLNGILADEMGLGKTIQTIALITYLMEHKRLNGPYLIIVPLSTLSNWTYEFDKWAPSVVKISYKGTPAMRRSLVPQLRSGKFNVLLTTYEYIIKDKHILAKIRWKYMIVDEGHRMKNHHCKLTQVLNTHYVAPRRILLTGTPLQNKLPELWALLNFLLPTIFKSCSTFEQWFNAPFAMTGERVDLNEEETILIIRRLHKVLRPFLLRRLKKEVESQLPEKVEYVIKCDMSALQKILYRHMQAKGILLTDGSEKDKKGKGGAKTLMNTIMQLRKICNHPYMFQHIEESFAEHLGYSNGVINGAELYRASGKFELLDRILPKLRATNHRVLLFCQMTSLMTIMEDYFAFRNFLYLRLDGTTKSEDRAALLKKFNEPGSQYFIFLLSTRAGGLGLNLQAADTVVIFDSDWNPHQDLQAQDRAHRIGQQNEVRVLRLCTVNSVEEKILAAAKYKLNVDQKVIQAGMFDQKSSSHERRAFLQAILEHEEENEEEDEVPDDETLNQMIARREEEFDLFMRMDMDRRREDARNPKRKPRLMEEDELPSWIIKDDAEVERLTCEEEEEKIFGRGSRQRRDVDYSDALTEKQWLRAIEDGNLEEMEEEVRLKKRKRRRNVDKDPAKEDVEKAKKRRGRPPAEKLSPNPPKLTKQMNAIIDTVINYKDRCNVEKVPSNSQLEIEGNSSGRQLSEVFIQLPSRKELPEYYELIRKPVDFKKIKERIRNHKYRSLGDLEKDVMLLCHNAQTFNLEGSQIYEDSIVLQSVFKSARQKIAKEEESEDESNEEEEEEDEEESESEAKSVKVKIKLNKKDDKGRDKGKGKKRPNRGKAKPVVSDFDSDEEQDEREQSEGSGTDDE

Experiment [2] has as its target SMARCA4 (Homo sapiens, UniProt P51532). The experiment is described as follows: HiBit assay in engineered HT1080 CRISPR knock-in cell, 6 hrs (B series), SMARCA4. Type of experiment: cell-based. Conditions: 6 hrs incubation; for DC50: HT1080 CRISPR knock-in cells, read-out: SMARC A4 HT1080 HiBit DC50; for Dmax: HT-1080, HT1080 CRISPR knock-in cells, read-out: SMARC A4 HT1080 HiBit Dmax(%). Summed up: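 HT1080 CRISPR knock-in cells carrying the HiBiT tag were seeded onto compounds (final DMSO 0.1%) and incubated 6 hrs at 37° C, 5% CO2. Remaining tagged protein was detected by lytic HiBiT luminescence after adding LgBiT protein and substrate, with LgBiT-free wells serving as negative control.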

SMARCA4, sequence (P51532 whole entry): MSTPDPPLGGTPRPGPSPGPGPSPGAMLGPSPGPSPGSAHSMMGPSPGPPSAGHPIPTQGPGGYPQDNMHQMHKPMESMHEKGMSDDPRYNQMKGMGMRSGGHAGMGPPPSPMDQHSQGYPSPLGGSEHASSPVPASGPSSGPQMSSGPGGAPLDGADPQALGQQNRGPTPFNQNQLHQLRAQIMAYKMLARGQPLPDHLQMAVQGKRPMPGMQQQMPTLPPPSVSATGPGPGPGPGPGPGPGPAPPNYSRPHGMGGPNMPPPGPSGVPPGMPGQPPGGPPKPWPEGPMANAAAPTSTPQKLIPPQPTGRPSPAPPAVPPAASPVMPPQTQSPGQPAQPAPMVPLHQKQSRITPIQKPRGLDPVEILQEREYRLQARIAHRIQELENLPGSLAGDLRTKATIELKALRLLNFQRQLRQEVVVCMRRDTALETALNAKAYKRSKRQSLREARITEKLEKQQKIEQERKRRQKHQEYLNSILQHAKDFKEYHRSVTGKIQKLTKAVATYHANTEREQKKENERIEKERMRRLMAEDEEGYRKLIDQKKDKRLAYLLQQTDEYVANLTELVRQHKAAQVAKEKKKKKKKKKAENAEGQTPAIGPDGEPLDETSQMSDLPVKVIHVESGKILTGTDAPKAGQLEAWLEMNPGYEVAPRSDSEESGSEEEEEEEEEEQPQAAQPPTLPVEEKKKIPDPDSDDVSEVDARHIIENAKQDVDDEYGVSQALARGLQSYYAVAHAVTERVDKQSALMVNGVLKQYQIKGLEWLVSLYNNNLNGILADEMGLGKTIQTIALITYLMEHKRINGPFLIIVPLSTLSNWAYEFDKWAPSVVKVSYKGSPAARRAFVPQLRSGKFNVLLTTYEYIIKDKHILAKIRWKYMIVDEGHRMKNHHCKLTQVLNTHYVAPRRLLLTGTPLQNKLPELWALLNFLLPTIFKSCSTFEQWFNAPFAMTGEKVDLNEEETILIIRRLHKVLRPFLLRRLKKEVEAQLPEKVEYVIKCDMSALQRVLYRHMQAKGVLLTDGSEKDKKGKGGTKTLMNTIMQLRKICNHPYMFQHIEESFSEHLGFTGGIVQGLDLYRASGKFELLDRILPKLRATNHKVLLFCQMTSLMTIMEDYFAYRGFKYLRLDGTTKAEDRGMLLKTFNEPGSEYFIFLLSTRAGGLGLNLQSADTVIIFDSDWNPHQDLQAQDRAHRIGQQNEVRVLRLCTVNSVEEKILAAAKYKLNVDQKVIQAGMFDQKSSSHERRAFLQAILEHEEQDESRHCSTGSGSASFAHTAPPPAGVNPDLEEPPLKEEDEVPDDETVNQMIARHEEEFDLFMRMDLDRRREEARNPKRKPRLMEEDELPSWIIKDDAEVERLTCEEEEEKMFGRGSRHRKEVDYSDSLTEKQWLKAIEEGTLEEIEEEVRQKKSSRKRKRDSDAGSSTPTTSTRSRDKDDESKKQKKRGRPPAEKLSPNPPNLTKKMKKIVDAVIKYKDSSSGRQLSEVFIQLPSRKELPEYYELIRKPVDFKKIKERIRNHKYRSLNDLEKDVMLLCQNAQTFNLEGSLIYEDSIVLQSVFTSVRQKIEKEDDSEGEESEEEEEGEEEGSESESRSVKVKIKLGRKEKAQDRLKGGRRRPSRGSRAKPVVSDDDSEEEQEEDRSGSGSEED

As for `Cc1ncsc1-c1ccc([C@H](C)NC(=O)[C@@H]2C[C@@H](O)CN2C(=O)[C@H](C(C)C)n2cc([C@H]3CC[C@H](CN4CCC(c5cccc6c5C(C)(C)c5nc(=O)c7c(Cl)cccc7n5-6)CC4)CC3)nn2)cc1` [Compound B107, (2S,4R)-1-((S)-2-(4-((1r,4S)-4-((4-(4-chloro-7,7-dimethyl-5-oxo-5,7-dihydroindolo[1,2-a]quinazolin-8-yl)piperidin-1-yl)methyl)cyclohexyl)-1H-1,2,3-triazol-1-yl)-3-methylbutanoyl)-4-hydroxy-N-((S)-1-(4-(4-methylthiazol-5-yl)phenyl)ethyl)pyrrolidine-2-carboxamide], the DC50 in experiment [1] and in experiment [2] was less than 100 nM throughout. The Dmax in experiment [1] and in experiment [2] was more than 90% in each case.
Turning to `Cc1ncsc1-c1ccc([C@H](C)NC(=O)[C@@H]2C[C@@H](O)CN2C(=O)[C@@H](NC(=O)C23CCC(CN4CCC(c5ccc6c(c5)C(C)(C)c5nc(=O)c7c(Cl)cccc7n5-6)CC4)(CC2)C3)C(C)(C)C)cc1` [Compound B18, (2S,4R)-1-((S)-2-(4-((4-(4-chloro-7,7-dimethyl-5-oxo-5,7-dihydroindolo[1,2-a]quinazolin-9-yl)piperidin-1-yl)methyl)bicyclo[2.2.1]heptane-1-carboxamido)-3,3-dimethylbutanoyl)-4-hydroxy-N-((S)-1-(4-(4-methylthiazol-5-yl)phenyl)ethyl)pyrrolidine-2-carboxamide], in experiment [1], the DC50 was less than 100 nM and the Dmax was more than 90%. Moreover, in experiment [2], the DC50 was less than 100 nM and the Dmax is 70 to 90%.
Regarding `Cc1ncsc1-c1ccc(CNC(=O)[C@@H]2C[C@@H](O)CN2C(=O)[C@@H](NC(=O)C2(F)CC2)C(C)(C)C)c(OCCCN2CCC(c3ccc4c(c3)-n3c(nc(=O)c5c(Cl)cccc53)C4(C)C)CC2)c1` [Compound B39, (2S,4R)-N-(2-(3-(4-(4-chloro-7,7-dimethyl-5-oxo-5,7-dihydroindolo[1,2-a]quinazolin-10-yl)piperidin-1-yl)propoxy)-4-(4-methylthiazol-5-yl)benzyl)-1-((S)-2-(1-fluorocyclopropane-1-carboxamido)-3,3-dimethylbutanoyl)-4-hydroxypyrrolidine-2-carboxamide], in experiment [1], the DC50 is less than 100 nM and the Dmax was more than 90%. In experiment [2], the DC50 is less than 100 nM and the Dmax was more than 90%.
As for `Cc1ncsc1-c1ccc([C@H](C)NC(=O)[C@@H]2C[C@@H](O)CN2C(=O)[C@H](C(C)C)n2cc(CCCN3CCC(c4ccc5c(c4)-n4c(nc(=O)c6c(Cl)cccc64)C5(C)C)CC3)nn2)cc1` [Compound B58, (2S,4R)-1-((S)-2-(4-(3-(4-(4-chloro-7,7-dimethyl-5-oxo-5,7-dihydroindolo[1,2-a]quinazolin-10-yl)piperidin-1-yl)propyl)-1H-1,2,3-triazol-1-yl)-3-methylbutanoyl)-4-hydroxy-N-((S)-1-(4-(4-methylthiazol-5-yl)phenyl)ethyl)pyrrolidine-2-carboxamide], in experiment [1], the DC50 is less than 100 nM and the Dmax was more than 90%. In addition, in experiment [2], the DC50 is less than 100 nM and the Dmax lay in the range of 70 to 90%.
Consider `Cc1ncsc1-c1ccc([C@H](C)NC(=O)[C@@H]2C[C@@H](O)CN2C(=O)C(c2cc(OCCCCn3cc(-c4ccc5c(c4)C(C)(C)c4nc(=O)c6c(Cl)cccc6n4-5)cn3)no2)C(C)C)cc1` (stereo partly drawn) [Compound B99, (2S,4R)-1-(2-(3-(4-(4-(4-chloro-7,7-dimethyl-5-oxo-5,7-dihydroindolo[1,2-a]quinazolin-9-yl)-1H-pyrazol-1-yl)butoxy)isoxazol-5-yl)-3-methylbutanoyl)-4-hydroxy-N-((S)-1-(4-(4-methylthiazol-5-yl)phenyl)ethyl)pyrrolidine-2-carboxamide], for which, in experiment [1], the DC50 was less than 100 nM and the Dmax lay in the range of 50 to 69%. For the same compound, in experiment [2], the DC50 is more than 1000 nM and the Dmax is less than 50%.
